Assay results as given in US11974983B2 (Duke University, priority 2018, dated 2024).

Legend:
MCF7 WT [1] = experiment: Mammary intraductal (MIND) xenograft model, MCF7 WT; format: in vivo, NSG mice; details: MCF7 WT mice; fulvestrant 5 mg once per week subcutaneous
Description: (§1) MCF7 cells were engineered with CRISPR/Cas9 to express ERα with Y537S and D538G mutations. To mimic the natural environment of infiltrating ductal ERα^+ breast cancers, NSG™ mice were injected, via the nipple in the inguinal mammary glands, with three MCF7 cell variants: wild type MCF7 cells (MCF7 WT), MCF7 cells expressing Y537S mutant ERα (MCF7 Y537S), and MCF7 cells expressing D538G mutant ERα (MCF7 D538G), respectively. Prior to injection, the MCF7 cells were labeled with a luciferase reporter to monitor tumor growth in vivo using a Xenogen IVIS imager. […] FIG. 4 summarizes the experimental design.

MCF7 Y537S = experiment: Mammary intraductal (MIND) xenograft model, MCF7 Y537S; format: in vivo, NSG mice; details: MCF7 Y537S; fulvestrant 5 mg once per week; after 70 days
Description: as §1

MCF7 WT [2] = experiment: MIND xenograft model, combination therapies, MCF7 WT; format: in vivo, mice
Source text: MCF7 WT and MCF7 Y537S MIND xenograft model were generated as described in Example 3. […] FIG. 20 summarizes the experimental design.

[3] = system: wild-type ERα and ERα LBD mutants Y537S, Y537N, Y537C, D538G; experiment: ERE-luciferase reporter assay in Caov2 and SKBR3 cells (statements on all receptors); format: cell-based
Description: ExSite mutagenesis was performed using the corresponding primers as summarized in Table 1 below on a pENTR2B ERα WT construct using Pfu ultra taq polymerase. The primers were PNK phosphorylated. Following PCR amplification, the products were digested with DpnI at 37° C. for 1 hr, followed by overnight ligation at 16° C. Ligated products were transformed into DH5α bacterial cells and grown on kanamycin resistant plates. The pENTR clones were verified by sequencing and then swapped into the pcDNA-DEST vector using the Gateway system (Invitrogen) for expression analysis.
Caov2 ovarian carcinoma cells were grown in RPMI-1640 media (Gibco) supplemented with 8% Fetal Bovine Serum (FBS), Sodium Pyruvate (NaPyr) and non-essential amino acids (NEAA) and passaged every 2-3 days. SKBR3 breast adenocarcinoma cells were grown in DMEM media (Gibco) supplemented with 8% Fetal Bovine Serum (FBS), Sodium Pyruvate (NaPyr) and non-essential amino acids (NEAA) and passaged every 2-3 days. […]
Caov2 cells were co-transfected with the 7X-TK-ERE-TATA luciferase reporter gene (Nagel et al., Endocrinology 142(11): 4721-4728 (2001)) and expression constructs for either wild-type or mutant receptors using Fugene transfection reagent (Promega). […] Following 24 hours of treatment, cells were lysed and the luciferase and β-gal assays were performed as described previously (Norris et al., J Biol Chem 270(39): 22777-22782 (1995)) and the plates were read on the Fusion α-FP HT plate reader (PerkinElmer Life Sciences).
See Jeselsohn et al., Nature Reviews Clinical Oncology 12(10): 573-583 (2015); Jeselsohn et al., Clinical Cancer Research 20(7): 1757-1767 (2014); Robinson et al., Nature Genetics 45(12): 1446-1451(2013); Thomas and Gustafsson, Trends in Endocrinology and Metabolism 26(9): 467-476 (2015); and Toy et al., Nature Genetics 45(12): 1439-1445 (2013). The activity of these mutants was evaluated in a reconstituted estrogen response element (ERE)-luciferase reporter assay in Caov2 ovarian carcinoma cells and SKBR3 breast adenocarcinoma cells. […]

SMILES	tumor growth monitored by total flux (MCF7 WT [1])	lung metastasis (MCF7 Y537S)	tumor growth monitored by total flux (MCF7 WT [2]; MCF7 WT mice, fulvestrant alone 5 mg/mouse once per week)	tumor growth by tumor volume (MCF7 WT [2]; MCF7 WT, day 36 and day 43 of treatment)	transcriptional activity, response to E2 [3]
C[C@]12CC[C@@H]3c4ccc(O)cc4C[C@@H](CCCCCCCCC[S+]([O-])CCCC(F)(F)C(F)(F)F)[C@H]3[C@@H]1CC[C@@H]2O (some centres unmarked) [fulvestrant]	the most effective in inhibiting tumor growth	did not have a significant effect	the most effective in inhibiting tumor growth	the most effective	
C[C@]12CC[C@@H]3c4ccc(O)cc4CC[C@H]3[C@@H]1CC[C@@H]2O [E2, 17-β estradiol]					not responsive to E2 activation
